Assay [1] concerns the target T1, TLR7 (Homo sapiens, UniProt Q9NYK1).
T1 construct: expressed in transfected cells; host or cells: HEK/293 cells carrying TLR7 and an NF-kB luciferase reporter
T1 sequence (Q9NYK1 27-1049): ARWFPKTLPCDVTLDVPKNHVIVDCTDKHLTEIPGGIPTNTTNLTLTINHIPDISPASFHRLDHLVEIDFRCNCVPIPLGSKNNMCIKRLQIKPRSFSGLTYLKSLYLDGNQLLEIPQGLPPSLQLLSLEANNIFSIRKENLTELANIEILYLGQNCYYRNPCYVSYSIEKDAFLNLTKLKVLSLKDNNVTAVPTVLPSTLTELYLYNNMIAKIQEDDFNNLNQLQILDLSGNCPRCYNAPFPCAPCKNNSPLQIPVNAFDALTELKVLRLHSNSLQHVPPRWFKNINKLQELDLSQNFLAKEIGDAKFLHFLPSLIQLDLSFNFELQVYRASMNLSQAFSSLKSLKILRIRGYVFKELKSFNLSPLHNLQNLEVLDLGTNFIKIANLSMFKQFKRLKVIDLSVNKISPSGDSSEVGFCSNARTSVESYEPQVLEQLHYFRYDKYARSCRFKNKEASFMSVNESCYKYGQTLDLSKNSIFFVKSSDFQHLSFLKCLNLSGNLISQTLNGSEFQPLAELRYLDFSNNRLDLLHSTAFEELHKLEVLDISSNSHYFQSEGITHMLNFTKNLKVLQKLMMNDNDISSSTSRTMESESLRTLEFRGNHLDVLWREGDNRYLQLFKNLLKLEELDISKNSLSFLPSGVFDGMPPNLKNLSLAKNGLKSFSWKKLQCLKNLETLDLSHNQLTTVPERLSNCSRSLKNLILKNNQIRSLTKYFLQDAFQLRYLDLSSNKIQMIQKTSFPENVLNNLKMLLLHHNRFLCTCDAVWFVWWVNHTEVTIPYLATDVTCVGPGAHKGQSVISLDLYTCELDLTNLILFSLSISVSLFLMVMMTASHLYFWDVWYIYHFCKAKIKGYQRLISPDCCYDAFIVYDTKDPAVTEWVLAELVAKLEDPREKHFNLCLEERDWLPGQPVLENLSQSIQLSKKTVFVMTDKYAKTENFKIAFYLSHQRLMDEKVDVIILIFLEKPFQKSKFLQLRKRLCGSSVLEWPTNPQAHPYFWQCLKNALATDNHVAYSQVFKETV
As to the kind of experiment: HEK/293 TLR7 Cell Assay. The following applies: TLR7/NFKb HEK cells, R848 agonist 10 uM final concentration, Steady-Glo readout; read-out: TLR7 potency. In kind it is cell-based. The method in brief:
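TLR7/NF-κB reporter HEK293 cells, 5000/well, cultured 24 h, then preincubated 30 min with compound before R848 agonist (10 uM final). After 5 h stimulation, Steady-Glo luciferase luminescence read.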

Assay [2] has as its target T2, TLR8 (Homo sapiens, UniProt Q9NR97).
T2 construct: expressed in transfected cells; host or cells: HEK/293 reporter cells (NF-kB luciferase)
T2 sequence (Q9NR97 27-1041): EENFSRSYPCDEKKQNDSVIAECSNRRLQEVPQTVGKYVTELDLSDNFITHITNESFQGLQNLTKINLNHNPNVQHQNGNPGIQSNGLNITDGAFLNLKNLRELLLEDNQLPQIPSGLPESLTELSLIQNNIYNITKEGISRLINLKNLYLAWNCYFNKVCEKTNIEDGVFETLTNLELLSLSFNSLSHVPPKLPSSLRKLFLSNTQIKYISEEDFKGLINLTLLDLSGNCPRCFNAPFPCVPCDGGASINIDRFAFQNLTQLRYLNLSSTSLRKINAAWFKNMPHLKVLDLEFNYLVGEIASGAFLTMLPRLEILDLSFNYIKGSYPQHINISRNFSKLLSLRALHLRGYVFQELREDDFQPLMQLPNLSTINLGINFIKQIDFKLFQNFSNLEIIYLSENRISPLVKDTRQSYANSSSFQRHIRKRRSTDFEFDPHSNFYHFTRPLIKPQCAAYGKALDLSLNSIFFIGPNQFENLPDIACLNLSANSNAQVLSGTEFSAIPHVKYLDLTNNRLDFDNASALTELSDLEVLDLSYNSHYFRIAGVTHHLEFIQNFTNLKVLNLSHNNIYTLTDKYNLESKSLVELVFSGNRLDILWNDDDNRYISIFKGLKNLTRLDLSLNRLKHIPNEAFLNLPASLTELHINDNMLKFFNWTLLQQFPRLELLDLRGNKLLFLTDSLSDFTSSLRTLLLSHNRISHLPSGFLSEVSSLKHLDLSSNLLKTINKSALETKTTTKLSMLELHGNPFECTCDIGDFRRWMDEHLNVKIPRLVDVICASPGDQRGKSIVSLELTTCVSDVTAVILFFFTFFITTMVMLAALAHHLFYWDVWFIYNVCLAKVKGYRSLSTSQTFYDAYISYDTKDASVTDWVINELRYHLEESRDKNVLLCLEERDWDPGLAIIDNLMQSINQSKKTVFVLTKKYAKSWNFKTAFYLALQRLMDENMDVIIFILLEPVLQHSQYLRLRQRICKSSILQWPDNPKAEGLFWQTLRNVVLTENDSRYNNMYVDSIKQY
The assay can be described thus: HEK/293 TLR8 Cell Assay. It counts as cell-based. The following applies: HEK cells, R848 agonist 30 uM final concentration, Steady-Glo readout; read-out: TLR8 potency.

Consider `C[C@H]1C[C@@H](NCCCS(N)(=O)=O)CN(c2ccc(C(F)(F)F)c3ncccc23)C1` [Example 39, 3-[(3R,5S)-5-Methyl-1-(8-trifluoromethyl-quinolin-5-yl)-piperidin-3-ylamino]-propane-1-sulfonic acid amide], for which the IC50 in assay [1] and in assay [2] was under 75 nM in each case.
On to `N#Cc1ccc(N2C[C@@H](C(F)(F)F)O[C@@H](C(=O)NC[C@@H](O)CO)C2)c2nccnc12` (single isomer, unassigned) [Example 282], for which the IC50 in assay [1] was 75 to 150 nM; in assay [2], over 150 nM.
The corresponding values for `C[C@@H]1CN(c2cnc(C#N)c3ncccc23)C[C@H](C(=O)NC[C@@H]2CN(C)CCO2)O1` [Example 275, (2R,6R)-4-(8-Cyano-[1,7]naphthyridin-5-yl)-6-methyl-morpholine-2-carboxylic acid ((R)-4-methyl-morpholin-2-ylmethyl)-amide] are under 75 nM and under 75 nM.
The corresponding values for `C[C@@H]1CN(c2cnc(C#N)c3ncccc23)C[C@H](C(=O)NC2CCNCC2(F)F)O1` (stereo partly drawn) [Example 302, (2R,6R)-4-(8-Cyano-[1,7]naphthyridin-5-yl)-6-methyl-morpholine-2-carboxylic acid (3,3-difluoro-piperidin-4-yl)-amide] are over 150 nM and over 150 nM.
The corresponding values for `C[C@H]1C[C@@H](n2ccnn2)CN(c2ccc(C#N)c3nccnc23)C1` (racemic) [Example 153, 8-[cis-3-methyl-5-(1H-1,2,3-triazol-1-yl)piperidin-1-yl]quinoxaline-5-carbonitrile] are over 150 nM and under 75 nM.
For the molecule `C[C@H]1C[C@@H](NC(=O)Cc2cnn(C)c2)CN(c2cc(F)c(C#N)c3ncccc23)C1` [Example 58, N-[(3R,5S)-1-(8-Cyano-7-fluoro-quinolin-5-yl)-5-methyl-piperidin-3-yl]-2-(1-methyl-1H-pyrazol-4-yl)-acetamide], the IC50 in assay [1] is over 150 nM; in assay [2], 75 to 150 nM.
Consider `CN1CCC(O)(CC(=O)N[C@@H]2C[C@H](C(F)(F)F)CN(c3ccc(C(F)(F)F)c4ncccc34)C2)CC1` [Example 67, 2-(4-hydroxy-1-methylpiperidin-4-yl)-N-[(3R,5S)-5-(trifluoromethyl)-1-[8-(trifluoromethyl)quinolin-5-yl]piperidin-3-yl]acetamide], for which the IC50 in assay [1] and in assay [2] was under 75 nM in each case.
`COc1ncc(N2C[C@@H](C)C[C@@H](N)C2)c2nccnc12` [Example 199, (3R,5S)-1-(5-Methoxy-pyrido[3,4-b]pyrazin-8-yl)-5-methyl-piperidin-3-ylamine]: the figures for the IC50 in assay [1] and in assay [2] were 75 to 150 nM and under 75 nM, respectively.
`C[C@H]1C[C@@H](NCCC(C)(C)O)CN(c2ccc(C(F)(F)F)c3ncccc23)C1` [Example 33, 2-Methyl-4-[(3R,5S)-5-methyl-1-(8-trifluoromethyl-quinolin-5-yl)-piperidin-3-ylamino]-butan-2-ol]: the IC50 in assay [1] and in assay [2] was under 75 nM each time.
On to `C[C@H]1C[C@@H](NCCCS(C)(=O)=O)CN(c2ccc(C#N)c3nccnc23)C1` [Example 21, 8-[(3R,5S)-3-[(3-methanesulfonylpropyl)amino]-5-methylpiperidin-1-yl]quinoxaline-5-carbonitrile methanesulfonamide], for which the IC50 in assay [1] and in assay [2] was under 75 nM each time.
`N#Cc1ccc(N2C[C@H](NC(=O)[C@@]3(F)CCNC3)C[C@H](C(F)(F)F)C2)c2cccnc12` (single isomer, unassigned) [Example 164]: the IC50 in assay [1] and in assay [2] was 75 to 150 nM each time.
Turning to `C[C@H]1C[C@@H](NC(=O)CC2CS(=O)(=O)C2)CN(c2ccc(C#N)c3nccnc23)C1` [Example 207, N-[(3R,5S)-1-(8-cyanoquinoxalin-5-yl)-5-methylpiperidin-3-yl]-2-(1,1-dioxo-1λ^6-thietan-3-yl)acetamide], the IC50 in assay [1] is over 150 nM; in assay [2] it was 75 to 150 nM.
The corresponding values for `C[C@H]1C[C@@H](OCCN2CCCCC2)CN(c2ccc(C#N)c3nccnc23)C1` [Example 5, 8-[(3S,5R)-3-methyl-5-[2-(piperidin-1-yl)ethoxy]piperidin-1-yl]quinoxaline-5-carbonitrile] are under 75 nM and under 75 nM.
The corresponding values for `C[C@@H]1CN(c2ccc(C#N)c3nccnc23)C[C@H](C(=O)NC[C@H](O)CO)O1` [Example 234, (2R,6R)-4-(8-Cyano-quinoxalin-5-yl)-6-methyl-morpholine-2-carboxylic acid ((S)-2,3-dihydroxy-propyl)-amide] are 75 to 150 nM and 75 to 150 nM.
The corresponding values for `C[C@H]1C[C@@H](OCCN2CCN(C)CC2)CN(c2ccc(C#N)c3nccnc23)C1` (racemic) [Example 1, 8-[(3S,5R)-3-methyl-5-[2-(4-methylpiperazin-1-yl)ethoxy]piperidin-1-yl]quinoxaline-5-carbonitrile] are under 75 nM and under 75 nM.
With `C[C@@H]1CN(c2ccc(C#N)c3nccnc23)C[C@H](C(=O)NC2CCN(CC(F)(F)F)CC2)O1` [Example 247, (2R,6R)-4-(8-Cyano-quinoxalin-5-yl)-6-methyl-morpholine-2-carboxylic acid [1-(2,2,2-trifluoro-ethyl)-piperidin-4-yl]-amide], the IC50 in assay [1] and in assay [2] was under 75 nM throughout.
Regarding `C[C@H](N)C(=O)N[C@@H]1C[C@H](C(F)(F)F)CN(c2ccc(C(F)(F)F)c3ncccc23)C1` [Example 171, (S)-2-Amino-N-[(3R,5S)-5-trifluoromethyl-1-(8-trifluoromethyl-quinolin-5-yl)-piperidin-3-yl]-propionamide], the IC50 in assay [1] and in assay [2] was under 75 nM in each case.
Regarding `C[C@H]1C[C@@H](NC(=O)C[C@@H]2CCNC[C@@H]2F)CN(c2ccc(C#N)c3ncncc23)C1` [Example 131, N-[(3R,5S)-1-(8-cyanoquinazolin-5-yl)-5-methylpiperidin-3-yl]-2-[(3R,4S)-3-fluoropiperidin-4-yl]acetamide], the IC50 is under 75 nM in assay [1] and over 150 nM in assay [2].
Taken in the same sequence, the figures for `CN1CCC(F)(CNC(=O)[C@@H]2CN(c3ccc(C#N)c4ncccc34)C[C@H](C(F)(F)F)O2)CC1` (single isomer, unassigned) [Example 354] were 75 to 150 nM and over 150 nM.
The corresponding values for `C[C@@H]1CN(c2ccc(C#N)c3nccnc23)C[C@H](C(=O)NC[C@@H]2CN(C)CCO2)O1` (single isomer, unassigned) [Example 325] are under 75 nM and under 75 nM.

For the origin of these results see patent US20210300940A1 (Merck Patent GmbH, priority 2018, published 2021).
